Test results reported in patent US5466678A, “Co-administration of S-adenosyl-L-methionine to reduce the nephrotoxicity of cisplatin therapy” (priority 1992, dated 1995).
Read-outs that look alike come from different tables or passages of the source.

What was measured:
[1] = test system: nephrotoxicity caused by CDDP; experiment: Test Example 2: nephrotoxicity (BUN) after single administration of CDDP in the dog; assay type: in vivo, dog (beagle); conditions: for BUN concentration: mean ± SD
Experimental: Nine beagle dogs (weighing 10.2-14.5 kg; 24-36 months of age) were divided into three groups of three animals each. […] BUN values were measured every two days after the administration and compared.

[2] = intraperitoneal administration, rat; cited from earlier work
[3] = in vivo, iv
[4] = test system: tumor cells; experiment: Antitumor activity, all tumor cells tested (summary); assay type: cell-based, mouse and human; conditions: SAMe alone, respective tumor cells
Experimental: (§1) Mouse L1210 and P388 leukemic cells were adjusted to 10^4 cells/ml in culture medium RPMI 1640, and the mixture was dispensed in 2 ml portions into culture test tubes (Falcon No. 2054) and cultured at 37° C. for 5 hours in the presence of 5% carbonic acid gas in a carbonic acid gas incubator. CDDP and/or SAMes were (was) then added into each culture test tube and incubation was continued for further one hour. The cultures were centrifuged at 1,600 rpm for 5 minutes and the culture medium was removed with suction. Two ml of RPMI 1640 was added to the residue and the mixture was cultured for 72 hours under the same conditions as described above, whereafter the number of cells in each of the resulting cultures was measured on a Coulter counter (Model ZB).
(§2) Mouse Colon 26 colon tumor cells were adjusted to 5×10^3 cells/ml in culture medium […] culture was dispensed in 2 ml portions into culture Petri dishes. […] The cells were treated with trypsin, diluted and then counted using a Coulter counter.
Human tumor cells which are listed below were adjusted to 5×10^3 -2×10^4 cells/ml in culture medium RPMI 1640 (N.B. 1) or MEM (N.B. 2), and the respective cultures were dispensed in 2 ml portions into culture Petri dishes. […] The cells were treated with trypsin, diluted and then counted using a Coulter counter.

[5] = test system: L1210 leukemic cells; experiment: Test Example 7: in vitro antitumor activity, L1210; assay type: cell-based, mouse; conditions: test drug alone
Experimental: as §1

[6] = assay type: in vivo, rat (SD strain); conditions: for Concentration of SH compounds in blood plasma (as converted to glutathione concentration) / Concentration of SH compounds in renal tissue (as converted to glutathione concentration): mean ± S.D.
Experimental: Test method: To 6-week-old rats of the SD strain was intravenously administered SAMe in physiological saline (30 mg/kg, pH 6), and the blood level of SH group-containing compounds in the renal tissue was measured thereafter at 30, 60 and 120 minutes (N. Kaplowits et al., J. Pharmacol. Exp. Ther. , 1977, 200, 279-286) .
The values in the table for the concentration of SH compounds in the renal tissue and blood plasma presented as means ± standard deviation as calculated on the assumption that all the SH compounds were glutathione.

[7] = test system: DLD-1 colon adenocarcinoma; experiment: Test Example 10: antitumor activity against human tumors, DLD-1; assay type: cell-based; conditions: CDDP alone
Experimental: (§3) After the culture medium was removed with suction, the respective residues were washed once with cold PBS (-), supplemented with 2 ml portions of fresh medium and then cultured for further 72 hours. The cells were treated with trypsin, diluted and then counted using a Coulter counter.
(§4) Culture medium MEM: 10% fetal calf serum, Kanamycin (60 μg/ml)
DLD-1: colon adenocarcinoma;

[8] = test system: LU65 pulmonary cancer; experiment: Test Example 10: antitumor activity against human tumors, LU65; assay type: cell-based; conditions: CDDP alone
Experimental: as §3, §4

[9] = test system: Colon 26 colon tumor cells; experiment: Test Example 9: in vitro antitumor activity, Colon 26; assay type: cell-based, mouse; conditions: CDDP alone
Experimental: as §2, with “The culture medium was removed with suction, and after washing once with cold PBS(-) 2 ml portions of fresh medium were dispensed into the cultures, which were then cultured for further 72 hours. The” for “The”

[10] = test system: ACHN renal adenocarcinoma; experiment: Test Example 10: antitumor activity against human tumors, ACHN; assay type: cell-based; conditions: CDDP alone
Experimental: as §3, §4
ACHN: renal adenocarcinoma

[11] = test system: mouse tumors; experiment: Antitumor activity in vitro, mouse tumors (summary); assay type: cell-based; conditions: CDDP alone
Experimental: as §1
as §2, with “The culture medium was removed with suction, and after washing once with cold PBS(-) 2 ml portions of fresh medium were dispensed into the cultures, which were then cultured for further 72 hours. The” for “The”

[12] = test system: L1210 leukemic cells; experiment: Test Example 11: potentiation by intraperitoneally or intravenously administered SAMe against mouse tumor L1210; assay type: in vivo, mouse (CDF1)
Source text: Groups each containing six 8- to 9-week-old male CDF1 mice weighing 24-28 g were used. Mouse L1210 leukemic cells (10^5 cells) were transplanted into the abdominal cavity (on day 0).

[13] = test system: MKN28 gastric adenocarcinoma; experiment: Test Example 10: antitumor activity against human tumors, MKN28; assay type: cell-based; conditions: CDDP alone
Experimental: as §3, §4
MKN28: gastric adenocarcinoma;

[14] = test system: human tumors; experiment: Antitumor activity in vitro, human tumors (summary); assay type: cell-based; conditions: CDDP alone
Experimental: Human tumor cells which are listed below were adjusted to 5×10^3 -2×10^4 cells/ml in culture medium RPMI 1640 (N.B. 1) or MEM (N.B. 2), and the respective cultures were dispensed in 2 ml portions into culture Petri dishes. […] After the culture medium was removed with suction, the respective residues were washed once with cold PBS (-), supplemented with 2 ml portions of fresh medium and then cultured for further 72 hours. The cells were treated with trypsin, diluted and then counted using a Coulter counter.

[15] = test system: A549 pulmonary adenocarcinoma; experiment: Test Example 10: antitumor activity against human tumors, A549; assay type: cell-based; conditions: CDDP alone
Experimental: as §3, §4
A549: pulmonary adenocarcinoma;

[16] = test system: L1210 leukemic cells; experiment: Test Example 8: in vivo potentiation of antitumor activity of CDDP, L1210; design: species or system mouse (CDF1 strain); conditions: for Animals showing 30 days of survival / ILS: days 1 and 5; for Change in body weight: day 7 minus day 1
Source text: Groups each containing six 8-week-old male mice of the CDF1 strain, weighing 24-28 g, were used. Mouse L1210 leukemic cells (10^5 cells) were transplanted into the abdominal cavity (on day 0).
wherein T stands for the average number of days of survival in the CDDP-administered groups of animals, and C for that in the non-CDDP-administered group (control group) of animals.
When the animals survived 30 days or more, the number of days of survival was deemed as 30 days for the purpose of calculation.
The administration was carried out intraperitoneally each time (on days 1 and 5). […] And the changes in body weight are presented as the difference between the mean body weights on days 1 and 7 (average body weight on day 7--average body weight on day 1) for each group.

[17] = test system: WiDr colon adenocarcinoma; experiment: Test Example 10: antitumor activity against human tumors, WiDr; assay type: cell-based; conditions: CDDP alone
Experimental: as §3, §4
WiDr: colon adenocarcinoma;

[18] = test system: MKN45 gastric adenocarcinoma; experiment: Test Example 10: antitumor activity against human tumors, MKN45; assay type: cell-based; conditions: CDDP alone
Experimental: as §3, §4
MKN45: gastric adenocarcinoma;

[19] = test system: P388 leukemic cells; experiment: Test Example 7: in vitro antitumor activity, P388; assay type: cell-based, mouse; conditions: CDDP alone
Experimental: The cultures were centrifuged at 1,600 rpm for 5 minutes and the culture medium was removed with suction.

[20] = test system: MCAS ovarian cyst adenocarcinoma; experiment: Test Example 10: antitumor activity against human tumors, MCAS; assay type: cell-based; conditions: CDDP alone
Experimental: as §3, §4
MCAS: ovarian cyst adenocarcinoma;

[21] = test system: PA-1 ovarian teratoma; experiment: Test Example 10: antitumor activity against human tumors, PA-1; assay type: cell-based; conditions: CDDP alone
Experimental: as §3, §4

[22] = 30 min after SAMe 30 mg/kg i.v.
[23] = 60 min after SAMe 30 mg/kg i.v.
[24] = 120 min after SAMe 30 mg/kg i.v.

**Q.** Which BUN concentration ([1]; SAMe 30 mg/kg i.v. with CDDP 4 mg/kg, day 1) does the source give for `C[S+](CC[C@H](N)C(=O)O)C[C@H]1O[C@@H](n2cnc3c(N)ncnc32)[C@H](O)[C@@H]1O` (stereo partly drawn) [SAMe, S-adenosyl-L-methionine] here?
**A.** 15.0 ± 1.04 mg/dL

**Q.** And the BUN concentration ([1]; SAMe 30 mg/kg i.v. with CDDP 4 mg/kg, day 6)?
**A.** 167.2 ± 102.30 mg/dL

**Q.** And the BUN concentration ([1]; SAMe 30 mg/kg i.v. with CDDP 4 mg/kg, day 12)?
**A.** 41.62 ± 0.00 mg/dL

**Q.** What about the “Mortality by day 7” value ([1]; SAMe 30 mg/kg with CDDP 4 mg/kg) of the same compound?
**A.** two out of the three animals

**Q.** And the BUN concentration ([1]; SAMe 100 mg/kg i.v. with CDDP 4 mg/kg, day 1)?
**A.** 13.4 ± 2.80 mg/dL

**Q.** And the BUN concentration ([1]; SAMe 100 mg/kg i.v. with CDDP 4 mg/kg, day 6)?
**A.** 27.6 ± 19.151 mg/dL

**Q.** And the BUN concentration ([1]; SAMe 100 mg/kg i.v. with CDDP 4 mg/kg, day 12)?
**A.** 25.5 ± 13.36 mg/dL

**Q.** And the LD50 [2]?
**A.** 2,000-2,500 mg/kg

**Q.** And the “Distribution to renal tissue” value [3]?
**A.** concentrates specifically at the renal tissue

**Q.** What about the “Metabolism at the renal tissue” value [3] of the same compound?
**A.** converted through the process of transmethylation to S-adenosylhomocysteine

**Q.** What about the IC50 [4] of the same compound?
**A.** ≥ 1000 µM

**Q.** What about the IC50 ([5]; Mus musculus) of the same compound?
**A.** > 1000 µM

**Q.** And the “Concentration of SH compounds in blood plasma (as converted to glutathione concentration)” value [6, 22]?
**A.** 12.2 ± 2.7 μg/ml blood plasma

**Q.** And the “Concentration of SH compounds in renal tissue (as converted to glutathione concentration)” value [6, 22]?
**A.** 1219.3 ± 68.3 μg/g organ

**Q.** And the “Concentration of SH compounds in blood plasma (as converted to glutathione concentration)” value [6, 23]?
**A.** 12.5 ± 2.1 μg/ml blood plasma

**Q.** What about the “Concentration of SH compounds in renal tissue (as converted to glutathione concentration)” value [6, 23] of the same compound?
**A.** 1256.0 ± 125.3 μg/g organ

**Q.** What about the “Concentration of SH compounds in blood plasma (as converted to glutathione concentration)” value [6, 24] of the same compound?
**A.** 18.5 ± 3.0 μg/ml blood plasma

**Q.** And the “Concentration of SH compounds in renal tissue (as converted to glutathione concentration)” value [6, 24]?
**A.** 1201.1 ± 37.8 μg/g organ

**Q.** And the “Accumulation in renal tissue” value ([6]; rat, in vivo, iv)?
**A.** accumulate the SAMe specifically in the renal tissue

**Q.** With `N.N.[Cl][Pt][Cl]` [CDDP, cis-diamine-dichloroplatinum] as the compound, how does the IC50 [7] read?
**A.** 23.5 µM

**Q.** What about the IC50 [8] of the same compound?
**A.** 20.3 µM

**Q.** And the IC50 [9]?
**A.** 41.7 µM

**Q.** And the IC50 [10]?
**A.** 48.4 µM

**Q.** What about the IC50 [11] of the same compound?
**A.** 3.5 to 41.7 µM

**Q.** What about the ILS ([12]; CDDP 4 mg/kg alone, intraperitoneal) of the same compound?
**A.** 78%

**Q.** And the ILS ([12]; CDDP 4 mg/kg alone, intravenous)?
**A.** 28%

**Q.** What about the ILS ([12]; CDDP 6 mg/kg alone, intraperitoneal) of the same compound?
**A.** 84%

**Q.** What about the IC50 [13] of the same compound?
**A.** 62.8 µM

**Q.** And the IC50 [14]?
**A.** 4.1 to 150 µM

**Q.** And the IC50 [15]?
**A.** 18.7 µM

**Q.** And the “Animals showing 30 days of survival” value ([16]; CDDP 4 mg/kg alone i.p.)?
**A.** 0/6

**Q.** What about the ILS ([16]; CDDP 4 mg/kg alone i.p.) of the same compound?
**A.** 73%

**Q.** What about the “Change in body weight” value ([16]; CDDP 4 mg/kg alone i.p.) of the same compound?
**A.** -2.4 g

**Q.** What about the “Animals showing 30 days of survival” value ([16]; CDDP 6 mg/kg alone i.p.) of the same compound?
**A.** 0/6

**Q.** What about the ILS ([16]; CDDP 6 mg/kg alone i.p.) of the same compound?
**A.** 121%

**Q.** What about the “Change in body weight” value ([16]; CDDP 6 mg/kg alone i.p.) of the same compound?
**A.** -4.5 g

**Q.** And the IC50 [17]?
**A.** 37.7 µM

**Q.** And the IC50 [18]?
**A.** 25.4 µM

**Q.** What about the IC50 [19] of the same compound?
**A.** 3.5 µM

**Q.** And the IC50 [20]?
**A.** 150 µM

**Q.** What about the IC50 [5] of the same compound?
**A.** 16.2 µM

**Q.** What about the IC50 [21] of the same compound?
**A.** 4.1 µM
